Read-outs that look alike come from different tables or passages of the source.
Molecular target: T1, LRRK2 (endogenous, HiBit tagged) (Homo sapiens, UniProt Q5S007)
T1 construct: endogenous in cells; host or cells: HEK293 cells with HiBit knock-in at the endogenous LRRK2 locus, stably expressing firefly luciferase
Experiment: Endogenous LRRK2 degradation assay, endogenous gene C-terminally HiBit-tagged in HEK293 cells (Nano-Glo Dual Luciferase)
Format: cell-based
Procedure, shortened: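 LRRK2-HiBit quantified via Nano-Glo Dual Luciferase in HEK293 knock-in cells co-expressing firefly luciferase, after 24 h exposure to compound (1 μM final top, 1:3, 11 points). Values normalised to DMSO median per plate and curve-fitted; Alamar Blue viability run alongside.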

[1] = endogenous HiBit-tagged LRRK2, HEK293 cells, 24 hours, read-out: **Endogenous WT Dmax (%)
[2] = endogenous HiBit-tagged LRRK2, HEK293 cells, 24 hours, read-out: *Endogenous WT DC50
[3] = endogenous HiBit-tagged LRRK2 in HEK293 cells, 24 hours treatment, read-out: Endogenous WT DC50
[4] = endogenous HiBit-tagged LRRK2 in HEK293 cells, 24 hours treatment, read-out: Endogenous WT Dmax
[5] = endogenous HiBit-tagged LRRK2 in HEK293 cells, 24 hours treatment, read-out: **Endogenous WT Dmax (%)
[6] = endogenous HiBit-tagged LRRK2 in HEK293 cells, 24 hours treatment, read-out: *Endogenous WT DC50

T1 sequence (Q5S007 whole entry): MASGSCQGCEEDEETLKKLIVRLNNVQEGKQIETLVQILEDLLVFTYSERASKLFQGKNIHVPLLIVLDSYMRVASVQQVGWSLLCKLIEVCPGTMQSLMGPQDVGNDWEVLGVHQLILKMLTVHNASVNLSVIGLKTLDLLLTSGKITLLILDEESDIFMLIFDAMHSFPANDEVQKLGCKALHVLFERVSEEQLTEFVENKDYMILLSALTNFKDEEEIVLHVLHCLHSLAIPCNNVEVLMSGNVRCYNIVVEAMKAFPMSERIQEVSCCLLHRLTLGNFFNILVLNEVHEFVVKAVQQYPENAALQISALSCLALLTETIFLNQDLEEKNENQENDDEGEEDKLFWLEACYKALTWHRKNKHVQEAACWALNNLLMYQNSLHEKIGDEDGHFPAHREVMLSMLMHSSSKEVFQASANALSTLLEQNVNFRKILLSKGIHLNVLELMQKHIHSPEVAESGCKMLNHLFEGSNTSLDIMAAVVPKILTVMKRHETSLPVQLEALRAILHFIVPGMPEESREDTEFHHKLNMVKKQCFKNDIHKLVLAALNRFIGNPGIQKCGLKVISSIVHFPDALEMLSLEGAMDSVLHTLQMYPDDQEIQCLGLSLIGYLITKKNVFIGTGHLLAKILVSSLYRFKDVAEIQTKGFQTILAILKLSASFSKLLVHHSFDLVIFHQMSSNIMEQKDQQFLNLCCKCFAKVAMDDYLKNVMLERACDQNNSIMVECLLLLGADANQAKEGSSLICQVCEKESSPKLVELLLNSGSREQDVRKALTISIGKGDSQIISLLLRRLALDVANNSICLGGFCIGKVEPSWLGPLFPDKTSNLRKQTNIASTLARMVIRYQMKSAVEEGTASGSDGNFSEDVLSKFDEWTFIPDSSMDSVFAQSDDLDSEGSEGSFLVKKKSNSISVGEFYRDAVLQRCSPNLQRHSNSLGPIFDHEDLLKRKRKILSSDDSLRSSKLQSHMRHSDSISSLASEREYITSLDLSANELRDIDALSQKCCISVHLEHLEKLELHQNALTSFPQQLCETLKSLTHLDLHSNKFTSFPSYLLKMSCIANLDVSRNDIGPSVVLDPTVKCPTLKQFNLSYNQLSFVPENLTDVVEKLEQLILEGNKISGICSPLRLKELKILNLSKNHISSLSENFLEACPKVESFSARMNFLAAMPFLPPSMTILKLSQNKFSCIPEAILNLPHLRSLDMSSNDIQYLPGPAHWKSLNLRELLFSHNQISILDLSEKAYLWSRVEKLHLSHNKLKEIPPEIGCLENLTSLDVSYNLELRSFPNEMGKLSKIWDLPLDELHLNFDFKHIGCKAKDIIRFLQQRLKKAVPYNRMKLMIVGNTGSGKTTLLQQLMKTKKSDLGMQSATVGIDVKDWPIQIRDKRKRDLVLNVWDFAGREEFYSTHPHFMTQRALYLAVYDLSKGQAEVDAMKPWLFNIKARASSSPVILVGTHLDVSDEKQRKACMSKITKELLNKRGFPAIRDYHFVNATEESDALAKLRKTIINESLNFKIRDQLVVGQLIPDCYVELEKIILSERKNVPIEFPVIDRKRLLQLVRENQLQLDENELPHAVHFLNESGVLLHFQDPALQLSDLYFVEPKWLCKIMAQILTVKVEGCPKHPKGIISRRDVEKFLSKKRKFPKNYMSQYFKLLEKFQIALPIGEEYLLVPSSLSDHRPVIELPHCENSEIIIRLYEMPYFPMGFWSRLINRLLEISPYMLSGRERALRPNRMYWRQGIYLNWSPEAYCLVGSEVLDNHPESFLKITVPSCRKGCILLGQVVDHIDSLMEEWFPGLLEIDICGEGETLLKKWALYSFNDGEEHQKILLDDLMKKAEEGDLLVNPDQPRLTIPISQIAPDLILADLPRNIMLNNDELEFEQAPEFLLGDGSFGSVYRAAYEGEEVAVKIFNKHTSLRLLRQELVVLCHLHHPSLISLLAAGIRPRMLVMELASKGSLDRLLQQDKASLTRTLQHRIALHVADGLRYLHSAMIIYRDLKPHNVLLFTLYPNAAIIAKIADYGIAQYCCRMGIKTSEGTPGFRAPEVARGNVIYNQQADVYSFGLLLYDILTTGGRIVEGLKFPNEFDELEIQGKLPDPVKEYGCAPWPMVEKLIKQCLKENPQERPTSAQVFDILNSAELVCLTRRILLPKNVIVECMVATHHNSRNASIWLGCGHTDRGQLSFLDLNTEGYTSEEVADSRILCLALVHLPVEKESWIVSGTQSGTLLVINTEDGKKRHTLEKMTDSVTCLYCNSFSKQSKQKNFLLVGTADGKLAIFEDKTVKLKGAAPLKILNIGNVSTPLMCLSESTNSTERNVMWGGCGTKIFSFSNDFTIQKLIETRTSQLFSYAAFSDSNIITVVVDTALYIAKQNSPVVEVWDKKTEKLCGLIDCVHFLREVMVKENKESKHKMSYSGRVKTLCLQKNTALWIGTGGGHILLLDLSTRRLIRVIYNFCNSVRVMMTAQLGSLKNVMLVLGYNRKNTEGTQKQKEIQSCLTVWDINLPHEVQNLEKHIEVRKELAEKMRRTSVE

DC50 [3] [nM] | Dmax [4] [%] | Structure (SMILES) | other results
< 10 | 50 to 70 | CC1(Oc2cc3c(-c4cc(N5CCC(O[C@H]6CC[C@H](OC7CCN(c8ccc9c(c8F)CN(C8CCC(=O)NC8=O)C9=O)CC7)CC6)CC5)ncn4)n[nH]c3cc2F)CC1 (some centres unmarked) [Compound 227, 3-[4-fluoro-1-oxo-5-(4-{[(1r,4r)-4-[(1-{6-[6-fluoro-5-(1-methylcyclopropoxy)-1H-indazol-3-yl]pyrimidin-4-yl}piperidin-4-yl)oxy]cyclohexyl]oxy}piperidin-1-yl)-2,3-dihydro-1H-isoindol-2-yl]piperidine-2,6-dione] | –
< 10 | 50 to 70 | COc1c(N2CCC(CN3CCN(CC4CCN(c5cc(-c6n[nH]c7cc(F)c(OC8(C)CC8)cc67)ncn5)CC4)C(C)(C)C3)CC2)ccc2c1CN(C1CCC(=O)NC1=O)C2=O (centres unmarked) [Compound 359, 3-{5-[4-({4-[(1-{6-[6-fluoro-5-(1-methylcyclopropoxy)-1H-indazol-3-yl]pyrimidin-4-yl}piperidin-4-yl)methyl]-3,3-dimethylpiperazin-1-yl}methyl)piperidin-1-yl]-4-methoxy-1-oxo-2,3-dihydro-1H-isoindol-2-yl}piperidine-2,6-dione] | –
< 10 | 50 to 70 | COc1c(N2CCC(CN3CCC(F)(CN4CCN(c5cc(-c6n[nH]c7ccc(OC8(C)CC8)cc67)ncn5)CC4)CC3)CC2)ccc2c1CN(C1CCC(=O)NC1=O)C2=O (centres unmarked) [Compound 212, 3-[5-[4-[[4-fluoro-4-[[4-[6-[5-(1-methylcyclopropoxy)-1H-indazol-3-yl]pyrimidin-4-yl]piperazin-1-yl]methyl]-1-piperidyl]methyl]-1-piperidyl]-4-methoxy-1-oxo-isoindolin-2-yl]piperidine-2,6-dione] | –
< 10 | 50 to 70 | CC1(Oc2cc3c(-c4cc(N5CCC(CN6CCN(CC7CCN(c8ccc9c(c8F)CN(C8CCC(=O)NC8=O)C9=O)CC7)CC6(C)C)CC5)ncn4)n[nH]c3cn2)CC1 (centres unmarked) [Compound 247, 3-{5-[4-({3,3-dimethyl-4-[(1-{6-[5-(1-methylcyclopropoxy)-1H-pyrazolo[3,4-c]pyridin-3-yl]pyrimidin-4-yl}piperidin-4-yl)methyl]piperazin-1-yl}methyl)piperidin-1-yl]-4-fluoro-1-oxo-2,3-dihydro-1H-isoindol-2-yl}piperidine-2,6-dione] | –

The remaining lines, values behind:

Structure (SMILES) | DC50 [3] [nM] | Dmax [4] [%] | other results
COc1cc2c(cc1N1CCC(CN3CCC(F)(CN4CCN(c5cc(-c6[nH]nc7ccc(OC8(C)CC8)cc67)ncn5)CC4)CC3)CC1)CN(C1CCC(=O)NC1=O)C2=O (centres unmarked) [Compound 198, 3-[5-[4-[[4-fluoro-4-[[4-[6-[5-(1-methylcyclopropoxy)-2H-indazol-3-yl]pyrimidin-4-yl]piperazin-1-yl]methyl]-1-piperidyl]methyl]-1-piperidyl]-6-methoxy-1-oxo-isoindolin-2-yl]piperidine-2,6-dione] | – | – | Dmax [1]: ≥ 70%; DC50 [2]: < 10 nM
COc1c(N2CCC(O[C@H]3CC[C@H](OC4CCN(c5cc(-c6n[nH]c7cnc(OC8(C)CC8)cc67)ncn5)CC4)CC3)CC2)ccc2c1CN(C1CCC(=O)NC1=O)C2=O (some centres unmarked) [Compound 380, 3-[4-methoxy-1-oxo-5-(4-{[(1r,4r)-4-[(1-{6-[5-(1-methylcyclopropoxy)-1H-pyrazolo[3,4-c]pyridin-3-yl]pyrimidin-4-yl}piperidin-4-yl)oxy]cyclohexyl]oxy}piperidin-1-yl)-2,3-dihydro-1H-isoindol-2-yl]piperidine-2,6-dione] | < 10 | 50 to 70 | –
COc1c(N2CCN(C[C@H]3CC[C@H](OC4CCN(c5cc(-c6n[nH]c7cc(F)c(OC8(C)CC8)cc67)ncn5)CC4)CC3)CC2)ccc2c1CN(C1CCC(=O)NC1=O)C2=O (some centres unmarked) [Compound 281, 3-[4-methoxy-1-oxo-5-(4-{[(1r,4r)-4-[(1-{6-[6-fluoro-5-(1-methylcyclopropoxy)-1H-indazol-3-yl]pyrimidin-4-yl}piperidin-4-yl)oxy]cyclohexyl]methyl}piperazin-1-yl)-2,3-dihydro-1H-isoindol-2-yl]piperidine-2,6-dione] | – | – | Dmax [5]: 50 to 70%; DC50 [6]: < 10 nM
CC1(Oc2cc3c(-c4cc(N5CCC(CN6CCN(CC7(F)CCN(c8ccc9c(c8F)CN(C8CCC(=O)NC8=O)C9=O)CC7)CC6)CC5)ncn4)[nH]nc3cc2F)CC1 (centres unmarked) [Compound 229, 3-{4-fluoro-5-[4-fluoro-4-({4-[(1-{6-[6-fluoro-5-(1-methylcyclopropoxy)-2H-indazol-3-yl]pyrimidin-4-yl}piperidin-4-yl)methyl]piperazin-1-yl}methyl)piperidin-1-yl]-1-oxo-2,3-dihydro-1H-isoindol-2-yl}piperidine-2,6-dione] | < 10 | 50 to 70 | –
CC1(Oc2cc3c(-c4cc(N5CCC(CN6CCC(F)(CN7CCN(c8ccc9c(c8F)CN(C8CCC(=O)NC8=O)C9=O)CC7)CC6)CC5)ncn4)n[nH]c3cn2)CC1 (centres unmarked) [Compound 343, 3-{4-fluoro-5-[4-({4-fluoro-1-[(1-{6-[5-(1-methylcyclopropoxy)-1H-pyrazolo[3,4-c]pyridin-3-yl]pyrimidin-4-yl}piperidin-4-yl)methyl]piperidin-4-yl}methyl)piperazin-1-yl]-1-oxo-2,3-dihydro-1H-isoindol-2-yl}piperidine-2,6-dione] | – | – | Dmax [5]: 50 to 70%; DC50 [6]: < 10 nM
COc1c(N2CCC3(CC2)CN([C@H]2C[C@H](OC4CCN(c5cc(-c6[nH]nc7ccc(OC8(C)CC8)cc67)ncn5)CC4)C2)C3)ccc2c1CN(C1CCC(=O)NC1=O)C2=O (some centres unmarked) [Compound 315, 3-(4-methoxy-1-oxo-5-{2-[(1r,3r)-3-[(1-{6-[5-(1-methylcyclopropoxy)-2H-indazol-3-yl]pyrimidin-4-yl}piperidin-4-yl)oxy]cyclobutyl]-2,7-diazaspiro[3.5]nonan-7-yl}-2,3-dihydro-1H-isoindol-2-yl)piperidine-2,6-dione] | – | – | Dmax [5]: 50 to 70%; DC50 [6]: < 10 nM
CC1(Oc2cc3c(-c4cc(N5CCN(CC6(F)CCN(CC7CCN(c8cc9c(cc8F)C(=O)N(C8CCC(=O)NC8=O)C9)CC7)CC6)CC5)ncn4)[nH]nc3cc2F)CC1 (centres unmarked) [Compound 195, 3-[6-fluoro-5-[4-[[4-fluoro-4-[[4-[6-[6-fluoro-5-(1-methylcyclopropoxy)-2H-indazol-3-yl]pyrimidin-4-yl]piperazin-1-yl]methyl]-1-piperidyl]methyl]-1-piperidyl]-1-oxo-isoindolin-2-yl]piperidine-2,6-dione] | – | – | Dmax [1]: ≥ 70%; DC50 [2]: < 10 nM
CC1(Oc2ccc3[nH]nc(-c4cc(N5CCN(C[C@H]6CC[C@H](CN7CCN(c8ccc9c(c8F)CN(C8CCC(=O)NC8=O)C9=O)CC7)CC6)CC5)ncn4)c3c2)CC1 (some centres unmarked) [Compound 202, 3-[4-fluoro-5-[[4-[[4-[4-[6-[5-(1-methylcyclopropoxy)-1H-indazol-3-yl]pyrimidin-4-yl]piperazin-1-yl]methyl]cyclohexyl]methyl]piperazin-1-yl]-1-oxo-isoindolin-2-yl]piperidine-2,6-dione] | – | – | Dmax [1]: ≥ 70%; DC50 [2]: < 10 nM
COc1c(N2CC3(CCN(CCN4CCN(c5cc(-c6n[nH]c7ccc(OC8(C)CC8)cc67)ncn5)CC4)CC3(F)F)C2)ccc2c1CN(C1CCC(=O)NC1=O)C2=O (centres unmarked) [Compound 363, 3-(5-{5,5-difluoro-7-[2-(4-{6-[5-(1-methylcyclopropoxy)-1H-indazol-3-yl]pyrimidin-4-yl}piperazin-1-yl)ethyl]-2,7-diazaspiro[3.5]nonan-2-yl}-4-methoxy-1-oxo-2,3-dihydro-1H-isoindol-2-yl)piperidine-2,6-dione] | < 10 | 50 to 70 | –

Reference: US12559506B2, “Indazole based compounds and associated methods of use” (Arvinas Operations, Inc., priority 2021, dated 2026)
